# Assay results published in patent US20250241898A1, “Topical Benzimidazole Formulations and Methods for Use in Treating Inflammatory Dermatoses” (JJR&D, LLC, priority 2022, published 2025).
# System: CTLL-2 (ATCC TIB-214) cytotoxic T lymphocytes
# Experiment: In vitro screening platform for immunomodulation, CTLL-2 T-lymphocyte density
# Assay type: cell-based
# Method: An in vitro screening platform for immunomodulation was used to evaluate mebenzadole for efficacy. CTLL-2 (ATCC® TIB-214™) are cytotoxic T lymphocytes that were purchased and cultured according to ATCC protocol. […] The maximum volume added to the 1 mL of each of the 12 wells was 10 μL for the highest test concentration of mebenzadole and the control.
smiles,measurement,setting,value
"COC(=O)Nc1nc2ccc(C(=O)c3ccccc3)cc2[nH]1 [mebendazole, methyl 5-benzoylbenzimidazole-2-carbamate]",effect on T-lymphocytes (FIG. 1),"CTLL-2 cell culture, 1 nM to 1 μM",dose dependently kill T-lymphocytes
same,test concentration at which significant reduction of T-lymphocytes starts,"CTLL-2 cell culture, mebendazole in DMSO, 1 nM, 5 nM, 500 nM and 1 μM tested vs DMSO control",1 nM
same,"concentration at which significant reduction of CD+8 T cells starts, as mass concentration","in DMSO, equivalent given for 1 nM",0.295 μg per mL
